Results from patent US20200316051A1, “TLR7/8 ANTAGONISTS AND USES THEREOF” (Merck Patent GmbH, priority 2017, published 2020).

How the values were obtained:
TLR7/8 [1] = experiment: Cytokine production in human PBMCs stimulated with TLR7 agonist, let7c miRNA or let7/DOTAP in the presence of TLR7/8 antagonist; type: cell-based
Experimental: Human PBMCs were treated with TLR7 agonist (TLR7), let7c miRNA or transfected with let7c miRNA (let7/DOTAP) in the presence of TLR7/8 antagonist (Compound 467 in Table 1 above). Levels of IL-6 (FIG. 3) and IFNα (FIG. 4) were measured following overnight incubation.

TLR7/8 [2] = experiment: Activation of human PBMCs by LL37 alone or in complex with GU trimer or let-7c miRNA, with or without TLR7/8 inhibitor; type: cell-based
Experimental: Binding of LL37 to miRNA enables delivery of miRNA to human PBMCs and stimulate TLR7/8-mediated production of cytokines. Human recombinant LL37 protein was used alone, or in a complex with GU trimer or let-7c miRNA to activate human PBMCs in the presence or absence of TLR7/8 inhibitor (Compound 467 in Table 1 above). Levels of IL-6 (FIG. 5) and IFNα (FIG. 6) were measured following overnight incubation.

C[C@@H]1CN(c2ccc(C#N)c3nccnc23)C[C@H](CN2CCC(N3CCOCC3)CC2)O1 [Compound 467]
levels of IL-6 induced by let-7 miRNA (TLR7/8 [1]; overnight incubation (FIG. 3)): blocks production of cytokines
levels of IFNα induced by let-7 miRNA (TLR7/8 [1]; overnight incubation (FIG. 4)): blocks production of cytokines
TLR7/8 activation by LL37-RNA complexes, levels of IL-6 (TLR7/8 [2]; overnight incubation (FIG. 5)): the activation is suppressed
TLR7/8 activation by LL37-RNA complexes, levels of IFNα (TLR7/8 [2]; overnight incubation (FIG. 6)): the activation is suppressed
